Reference: US10590105B2, “1,3-dihydroxy-phenyl derivatives useful as immunomodulators” (BRISTOL-MYERS SQUIBB COMPANY, priority 2016, dated 2020)
pIC50: −log10 of the molar value.

Molecular target: PD-1/PD-L1 interaction (PD-1-Ig / PD-L1-His) (Homo sapiens (Human), UniProt Q9NZQ7)
Experiment: PD-1/PD-L1 Homogenous Time-Resolved Fluorescence (HTRF) binding assay
Details: PD-1/PD-L1 HTRF binding assay; value given as range class; read-out: Range or IC50
Text: The ability of the compounds of formula (I) to bind to PD-L1 was investigated using a PD-1/PD-L1 Homogenous Time-Resolved Fluorescence (HTRF) binding assay.
Homogenous Time-Resolved Fluorescence (HTRF) Binding Assay.
The interaction of PD-1 and PD-L1 can be assessed using soluble, purified preparations of the extracellular domains of the two proteins. The PD-1 and PD-L1 protein extracellular domains were expressed as fusion proteins with detection tags, for PD-1, the tag was the Fc portion of Immunoglobulin (PD-1-Ig) and for PD-L1 it was the 6 histidine motif (PD-L1-His). All binding studies were performed in an HTRF assay buffer consisting of dPBS supplemented with 0.1% […] bovine serum albumin and 0.05% (v/v) Tween-20. For the h/PD-L1-His binding assay, inhibitors were pre-incubated with PD-L1-His (10 nM final) for 15 m in 4 μl of assay buffer, followed by addition of PD-1-Ig (20 nM final) in 1 μl of assay buffer and further incubation for 15 m. HTRF detection was achieved using europium crypate-labeled anti-Ig (1 nM final) and allophycocyanin (APC) labeled anti-His (20 nM final). Antibodies were diluted in HTRF detection buffer and 5 μl was dispensed on top of the binding reaction. The reaction mixture was allowed to equilibrate for 30 minutes and the resulting signal (665 nm/620 nm ratio) was obtained using an EnVision fluorometer. Additional binding assays were established between the human proteins PD-1-Ig/PD-L2-His (20 & 5 nM, respectively) and CD80-His/PD-L1-Ig (100 & 10 nM, respectively).
Recombinant Proteins. Human PD-1 (25-167) with a C-terminal human Fc domain of immunoglobulin G (Ig) epitope tag [hPD-1 (25-167)-3S-IG] and human PD-L1 (18-239) with a C-terminal His epitope tag [hPD-L1(18-239)-TVMV-His] were expressed in HEK293T cells and purified sequentially by ProteinA affinity chromatography and size exclusion chromatography. Human PD-L2-His and CD80-His was obtained through commercial sources.
Ranges are as follows: A=0.001 to 0.010 micromolar; B=0.011 to 0.150 micromolar; C=0.151 to 10 micromolar.

Sequence of PD-1/PD-L1 interaction (PD-1-Ig / PD-L1-His) (Q9NZQ7 other isoform, or with tags, fused parts or gaps): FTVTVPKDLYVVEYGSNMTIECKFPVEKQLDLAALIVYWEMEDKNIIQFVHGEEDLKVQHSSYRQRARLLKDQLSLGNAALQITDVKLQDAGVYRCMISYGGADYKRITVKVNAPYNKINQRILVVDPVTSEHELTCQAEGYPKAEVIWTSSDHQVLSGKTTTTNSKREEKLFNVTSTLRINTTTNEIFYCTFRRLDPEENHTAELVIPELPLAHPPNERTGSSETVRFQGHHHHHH

Compound | pIC50
Cc1c(COc2cc(OCc3cncc(C#N)c3)c(CN[C@](C)(CO)C(=O)O)cc2Cl)cccc1-c1ccc2ccccc2n1 [Example 1004, (R)-2-((5-chloro-2-((5-cyanopyridin-3-yl)methoxy)-4-((2-methyl-3-(quinolin-2-yl)benzyl)oxy)benzyl)amino)-3-hydroxy-2-methylpropanoic acid] | 5.00 to 6.82
Cc1c(COc2cc(OCc3cncc(C#N)c3)c(CN[C@H](CO)C(=O)O)cc2Cl)cccc1-c1ccc2c(c1)ncn2CCN(C)C [Example 1025, (R)-2-((5-chloro-2-((5-cyanopyridin-3-yl)methoxy)-4-((3-(1-(2-(dimethylamino)ethyl)-1H-benzo[d]imidazol-6-yl)-2-methylbenzyl)oxy)benzyl)amino)-3-hydroxypropanoic acid and (R)-2-((5-chloro-2-((5-cyanopyridin-3-yl)methoxy)-4-((3-(1-(2-(dimethylamino)ethyl)-1H-benzo[d]imidazol-5-yl)-2-methylbenzyl)oxy)benzyl)amino)-3-hydroxypropanoic acid] | 5.00 to 6.82
Cc1c(COc2cc(OCc3cncc(C#N)c3)c(CN[C@](C)(CO)C(=O)O)cc2Cl)cccc1-c1ccc2ncoc2c1 [Example 1017, (R)-2-((4-((3-(benzo[d]oxazol-6-yl)-2-methylbenzyl)oxy)-5-chloro-2-((5-cyanopyridin-3-yl)methoxy)benzyl)amino)-3-hydroxy-2-methylpropanoic acid] | 6.82 to 7.96
Cc1c(COc2cc(OCc3cncc(C#N)c3)c(CN[C@](C)(CO)C(=O)O)cc2Cl)cccc1-c1ccc2ncsc2c1 [Example 1011, (R)-2-((4-((3-(benzo[d]thiazol-6-yl)-2-methylbenzyl)oxy)-5-chloro-2-((5-cyanopyridin-3-yl)methoxy)benzyl)amino)-3-hydroxy-2-methylpropanoic acid] | 6.82 to 7.96
Cc1c(COc2cc(OCc3cncc(C#N)c3)c(CN[C@@](C)(CO)C(=O)O)cc2Cl)cccc1-c1cccn(CCCN2CC[C@@H](O)C2)c1=O [Example 1037, (S)-2-((5-chloro-2-((5-cyanopyridin-3-yl)methoxy)-4-((3-(1-(3-((R)-3-hydroxypyrrolidin-1-yl)propyl)-2-oxo-1,2-dihydropyridin-3-yl)-2-methylbenzyl)oxy)benzyl)amino)-3-hydroxy-2-methylpropanoic acid] | 5.00 to 6.82
Cc1c(COc2cc(OCc3cncc(C#N)c3)c(CN3CCC[C@@]3(C)C(=O)O)cc2Cl)cccc1-c1ccc2ccoc2c1 [Example 1020, (S)-1-(4-((3-(benzofuran-6-yl)-2-methylbenzyl)oxy)-5-chloro-2-((5-cyanopyridin-3-yl)methoxy)benzyl)-2-methylpyrrolidine-2-carboxylic acid] | 8.00 to 9.00
Cc1c(COc2cc(OCc3cncc(C#N)c3)c(CN[C@](C)(CO)C(=O)O)cc2Cl)cccc1-c1ccc2ncccc2c1 [Example 1005, (R)-2-((5-chloro-2-((5-cyanopyridin-3-yl)methoxy)-4-((2-methyl-3-(quinolin-6-yl)benzyl)oxy)benzyl)amino)-3-hydroxy-2-methylpropanoic acid] | 5.00 to 6.82
Cc1c(COc2cc(OCc3cncc(C#N)c3)c(CN[C@](C)(CO)C(=O)O)cc2Cl)cccc1-c1ccc2scnc2c1 [Example 1021, (R)-2-((4-((3-(benzo[d]thiazol-5-yl)-2-methylbenzyl)oxy)-5-chloro-2-((5-cyanopyridin-3-yl)methoxy)benzyl)amino)-3-hydroxy-2-methylpropanoic acid] | 8.00 to 9.00
Cc1c(COc2cc(OCc3cncc(C#N)c3)c(CNC(C)(CO)CO)cc2Cl)cccc1-c1ccnc(OCCCN2CCCCC2)c1Cl [Example 2001, 5-((4-chloro-5-((3-(3-chloro-2-(3-(piperidin-1-yl)propoxy)pyridin-4-yl)-2-methylbenzyl)oxy)-2-(((1,3-dihydroxy-2-methylpropan-2-yl)amino)methyl)phenoxy)methyl)nicotinonitrile] | 8.00 to 9.00
CCC(CO)(CO)NCc1cc(Cl)c(OCc2nccc(-c3cccc(OCCCN4CC[C@@H](O)C4)c3C)c2C)cc1OCc1cncc(C#N)c1 [Example 2013, (R)-5-((4-chloro-2-(((1-hydroxy-2-(hydroxymethyl)butan-2-yl)amino)methyl)-5-((4-(3-(3-(3-hydroxypyrrolidin-1-yl)propoxy)-2-methylphenyl)-3-methylpyridin-2-yl)methoxy)phenoxy)methyl)nicotinonitrile] | 8.00 to 9.00
Cc1c(COc2cc(OCc3cncc(C#N)c3)c(CN3CCCC[C@H]3C(=O)O)cc2Cl)cccc1-c1cnc2ccccc2c1 [Example 1003, (S)-1-(5-chloro-2-((5-cyanopyridin-3-yl)methoxy)-4-((2-methyl-3-(quinolin-3-yl)benzyl)oxy)benzyl) piperidine-2-carboxylic acid] | 5.00 to 6.82
Cc1c(COc2cc(OCc3cncc(C#N)c3)c(CN3CCC[C@@]3(C)C(=O)O)cc2Cl)cccc1-c1ccc2scnc2c1 [Example 1023, (S)-1-(4-((3-(benzo[d]thiazol-5-yl)-2-methylbenzyl)oxy)-5-chloro-2-((5-cyanopyridin-3-yl)methoxy)benzyl)-2-methylpyrrolidine-2-carboxylic acid] | 6.82 to 7.96
Cc1c(COc2cc(OCc3cncc(C#N)c3)c(CN[C@](C)(CO)C(=O)O)cc2Cl)cccc1-c1cccn(CCCN2CC[C@@H](O)C2)c1=O [Example 1038, (R)-2-((5-chloro-2-((5-cyanopyridin-3-yl)methoxy)-4-((3-(1-(3-((R)-3-hydroxypyrrolidin-1-yl)propyl)-2-oxo-1,2-dihydropyridin-3-yl)-2-methylbenzyl)oxy)benzyl)amino)-3-hydroxy-2-methylpropanoic acid] | 5.00 to 6.82
Cc1c(COc2cc(OCc3cncc(C#N)c3)c(CNC(C)(CO)CO)cc2Cl)cccc1-c1nccc(OCCCO)c1Cl [Example 2004, 5-((4-chloro-5-((3-(3-chloro-4-(3-hydroxypropoxy)pyridin-2-yl)-2-methylbenzyl)oxy)-2-(((1,3-dihydroxy-2-methylpropan-2-yl)amino)methyl)phenoxy)methyl)nicotinonitrile] | 8.00 to 9.00
Cc1c(COc2cc(OCc3cncc(C#N)c3)c(CN3CCCC[C@H]3C(=O)O)cc2Cl)cccc1-c1ccc2ocnc2c1 [Example 1041, (S)-1-(4-((3-(benzo[d]oxazol-5-yl)-2-methylbenzyl)oxy)-5-chloro-2-((5-cyanopyridin-3-yl)methoxy)benzyl)piperidine-2-carboxylic acid] | 8.00 to 9.00
Cc1c(COc2cc(OCc3cncc(C#N)c3)c(CN3CCCC[C@H]3C(=O)O)cc2Cl)cccc1-c1ccc2nccnc2c1 [Example 1032, (S)-1-(5-chloro-2-((5-cyanopyridin-3-yl)methoxy)-4-((2-methyl-3-(quinoxalin-6-yl)benzyl)oxy)benzyl)piperidine-2-carboxylic acid] | 6.82 to 7.96
Cc1c(COc2cc(OCc3cncc(C#N)c3)c(CN[C@](C)(CO)C(=O)O)cc2Cl)cccc1-c1cc2ccccc2cn1 [Example 1007, (R)-2-((5-chloro-2-((5-cyanopyridin-3-yl)methoxy)-4-((3-(isoquinolin-3-yl)-2-methylbenzyl)oxy)benzyl)amino)-3-hydroxy-2-methylpropanoic acid] | 5.00 to 6.82
Cc1nn(-c2cccc(COc3cc(OCc4cncc(C#N)c4)c(CN[C@](C)(CO)C(=O)O)cc3Cl)c2C)c(C)c1CN1CC[C@@H](O)C1 [Example 2009, (R)-2-((5-chloro-2-((5-cyanopyridin-3-yl)methoxy)-4-((3-(4-(((R)-3-hydroxypyrrolidin-1-yl)methyl)-3,5-dimethyl-1H-pyrazol-1-yl)-2-methylbenzyl)oxy)benzyl)amino)-3-hydroxy-2-methylpropanoic acid] | 5.00 to 6.82
Cc1c(COc2cc(OCc3cncc(C#N)c3)c(CN[C@](C)(CO)C(=O)O)cc2Cl)cccc1-c1ccc2cnccc2c1 [Example 1009, (R)-2-((5-chloro-2-((5-cyanopyridin-3-yl)methoxy)-4-((3-(isoquinolin-6-yl)-2-methylbenzyl)oxy)benzyl)amino)-3-hydroxy-2-methylpropanoic acid] | 6.82 to 7.96
Cc1c(COc2cc(OCc3cncc(C#N)c3)c(CN3CCCC[C@H]3C(=O)O)cc2Cl)cccc1-c1ccc2oc(CCN3CC[C@@H](O)C3)nc2c1 [Example 1029, (S)-1-(5-chloro-2-((5-cyanopyridin-3-yl)methoxy)-4-((3-(2-(2-((R)-3-hydroxypyrrolidin-1-yl)ethyl)benzo[d]oxazol-5-yl)-2-methylbenzyl)oxy)benzyl)piperidine-2-carboxylic acid] | 8.00 to 9.00
